In patent US20220298146A1, “HETEROCYCLIC DERIVATIVE AND USE THEREOF” (Transthera Sciences (Nanjing), Inc., priority 2019, published 2022):

Legend:
[1] = molecular target: T1, H1299 cell pAxl (Homo sapiens, UniProt P30530); assay: Inhibitory activity on cell pAxl (H1299 cells, hGAS6 stimulation, Western Blot); assay type: cell-based; conditions: hGAS6 200 ng/mL, tested at 1.1, 3.3, 10 and 30 nM, read-out: Inhibitory Activity on Cell pAx1, IC50
T1 construct: endogenous in cells; host or cells: H1299
T1 sequence (P30530 26-894): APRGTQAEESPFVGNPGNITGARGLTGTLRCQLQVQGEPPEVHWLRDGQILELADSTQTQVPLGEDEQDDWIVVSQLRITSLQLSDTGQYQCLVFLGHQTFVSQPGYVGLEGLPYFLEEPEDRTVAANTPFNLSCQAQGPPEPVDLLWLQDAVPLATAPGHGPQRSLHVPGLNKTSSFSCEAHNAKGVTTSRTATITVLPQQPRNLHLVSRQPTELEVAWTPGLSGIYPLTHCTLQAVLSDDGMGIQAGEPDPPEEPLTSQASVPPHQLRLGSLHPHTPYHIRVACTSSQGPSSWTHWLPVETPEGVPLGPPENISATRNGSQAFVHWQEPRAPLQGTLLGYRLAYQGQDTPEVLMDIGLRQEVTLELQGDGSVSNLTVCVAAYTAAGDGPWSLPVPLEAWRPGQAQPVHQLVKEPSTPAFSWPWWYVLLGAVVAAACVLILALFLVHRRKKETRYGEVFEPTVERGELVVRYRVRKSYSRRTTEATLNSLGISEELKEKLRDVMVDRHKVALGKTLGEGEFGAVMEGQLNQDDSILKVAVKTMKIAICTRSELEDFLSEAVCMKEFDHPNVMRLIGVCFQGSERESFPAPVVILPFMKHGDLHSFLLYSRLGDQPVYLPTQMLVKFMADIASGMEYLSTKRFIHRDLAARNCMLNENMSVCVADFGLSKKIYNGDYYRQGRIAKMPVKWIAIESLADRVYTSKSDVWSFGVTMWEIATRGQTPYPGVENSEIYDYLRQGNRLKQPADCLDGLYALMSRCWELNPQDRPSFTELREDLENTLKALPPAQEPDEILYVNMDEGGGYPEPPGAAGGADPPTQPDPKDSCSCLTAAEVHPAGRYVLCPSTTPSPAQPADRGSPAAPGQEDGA
Protocol: H1299 is a non-small cell lung cancer cell.
Test samples: the compounds of the present invention, having structures shown above.
Test instruments: protein electrophoresis apparatus (made by Bio Rad), membrane transfer apparatus (made by Bio Rad), exposure apparatus (made by Tanon), and CO2 cell incubator (made by Thermo).
H1299 cells were inoculated into a 6-well plate (containing 10% FBS 1640 medium, 5×10^5 cells per well) and adherently cultivated at 37° C. and 5% CO2 for 18 h. The cells were starved overnight, and compounds with different concentrations were added. The compounds had final concentrations of 1.1 nM, 3.3 nM, 10 nM and 30 nM, with DMSO having a final concentration of 1‰. There was a medium containing 10‰ DMSO in the negative control well. The cells were incubated at 37° C. and 5% CO2 for 60 min, and then hGAS6 (R&D, final concentration: 200 ng/mL) was added to each well. The cells were further incubated for 60 min, and then the total protein of the cells was extracted for Western Blot experiment. IC50 values were calculated with GraphPad 5.0 software, and the inhibitory activities of the compounds on cell pAxl were detected.

[2] = molecular target: T2, Axl (h) (Homo sapiens, UniProt P30530); assay: Enzymatic activity assay, Axl (h) kinase, [γ-33P]-ATP; assay type: biochemical; conditions: 10 μM [γ-33P]-ATP, 40 min, room temperature; read-out: Inhibitory Activity on Ax1 (h), IC50
T2 construct: purchased
T2 sequence (P30530 26-894): T1 sequence (P30530 26-894)
Protocol: (§1) Test samples: the compounds of the present invention, having structures and preparation methods shown above.
(§2) (1) Preparation of Compound Stock Solutions
(§3) Compounds were each dissolved in 100% DMSO to prepare stock solutions with a maximum concentration of 500 μM.
(§4) (2) Preparation of Compound Working Solutions
(§5) The compound stock solutions were diluted to final concentrations of 500 μM, 150 μM, 50 μM, 15 μM, 5 μM, 1.5 μM, 0.5 μM, 0.15 μM and 0.05 μM to prepare compound working solutions (50×).
(3) Preparation of different enzymatic reaction solutions
Axl (h) enzyme was dissolved in a mixture of 8 mM MOPS (pH 7.0), 0.2 mM EDTA and 250 μM KKSRGDYMTMQIG to prepare an enzyme solution with a final concentration of 1.7 nM. An Mg/ATP mixture of 10 mM magnesium acetate and 10 μM [γ-^33P]-ATP was used to activate the enzymatic reaction.
(§6) The compound working solutions were added to a 384-well plate, with final concentrations of 10000 nM, 3000 nM, 1000 nM, 300 nM, 100 nM, 30 nM, 10 nM, 3 nM and 1 nM, respectively, and then different enzymatic reaction solutions prepared according to the above conditions were added. The reaction solutions were incubated at room temperature for 40 min, and then 0.5% phosphoric acid solutions were added to terminate the reaction. 10 μL of the reaction solution was added dropwise to P30 filter paper which was washed 4 times with a 0.425% phosphoric acid solution and once with methanol and then placed in a scintillation counter for detection. Gray analysis was performed on the results with Image J software, and IC50 values were calculated with GraphPad 5.0 software.

[3] = molecular target: T3, LCK (h) (Homo sapiens, UniProt P06239); assay: Enzymatic activity assay, LCK (h) kinase, [γ-33P]-ATP; assay type: biochemical; conditions: 10 μM [γ-33P]-ATP, 40 min, room temperature; read-out: Inhibitory Activity on LCK (h) kinase, IC50
T3 construct: purchased
Protocol: as §1
Preparation of Compound Stock Solutions:
as §3
Preparation of Compound Working Solutions:
as §5
Preparation of Different Enzymatic Reaction Solutions:
LCK (h) enzyme was dissolved in a mixture of 50 mM Tris (pH 7.5), 0.1 mM EGTA, 0.1 mM Na3VO4 and 250 μM KVEKIGEGTYGVVYK to prepare an enzyme solution with a final concentration of 45 nM. An Mg/ATP mixture of 10 mM magnesium acetate and 10 μM [γ-^33P]-ATP was used to activate the enzymatic reaction.
as §6

[4] = molecular target: T4, Ron (h) (Homo sapiens, UniProt Q04912); assay: Enzymatic activity assay, Ron (h) kinase, [γ-33P]-ATP; assay type: biochemical; conditions: 10 μM [γ-33P]-ATP, 40 min, room temperature; read-out: Inhibitory Activity on Ron (h) kinase, IC50
T4 construct: purchased
Protocol: as §1, §2, §3, §4, §5
(3) Preparation of Different Enzymatic Reaction Solutions
Ron (h) enzyme was dissolved in a mixture of 8 mM MOPS (pH 7.0), 0.2 mM EDTA and 250 μM GGMEDIYFEFMGGKKK to prepare an enzyme solution with a final concentration of 40.4 nM. An Mg/ATP mixture of 10 mM magnesium acetate and 10 μM [γ-^33P]-ATP was used to activate the enzymatic reaction.
as §6

T3 sequence (P06239 whole entry): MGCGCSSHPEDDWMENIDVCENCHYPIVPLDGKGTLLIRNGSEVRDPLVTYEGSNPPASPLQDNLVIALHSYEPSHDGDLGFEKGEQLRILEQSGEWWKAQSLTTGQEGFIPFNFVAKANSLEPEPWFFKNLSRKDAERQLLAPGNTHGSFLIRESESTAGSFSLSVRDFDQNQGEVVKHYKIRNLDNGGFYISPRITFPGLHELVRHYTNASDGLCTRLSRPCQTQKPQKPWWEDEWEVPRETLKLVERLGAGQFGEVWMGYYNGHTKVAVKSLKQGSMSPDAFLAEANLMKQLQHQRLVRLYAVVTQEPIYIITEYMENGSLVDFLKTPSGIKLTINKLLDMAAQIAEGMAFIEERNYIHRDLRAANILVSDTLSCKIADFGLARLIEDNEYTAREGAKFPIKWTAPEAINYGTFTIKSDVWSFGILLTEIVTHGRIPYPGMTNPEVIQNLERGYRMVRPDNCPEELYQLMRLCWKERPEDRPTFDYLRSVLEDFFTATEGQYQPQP
T4 sequence (Q04912 25-1400): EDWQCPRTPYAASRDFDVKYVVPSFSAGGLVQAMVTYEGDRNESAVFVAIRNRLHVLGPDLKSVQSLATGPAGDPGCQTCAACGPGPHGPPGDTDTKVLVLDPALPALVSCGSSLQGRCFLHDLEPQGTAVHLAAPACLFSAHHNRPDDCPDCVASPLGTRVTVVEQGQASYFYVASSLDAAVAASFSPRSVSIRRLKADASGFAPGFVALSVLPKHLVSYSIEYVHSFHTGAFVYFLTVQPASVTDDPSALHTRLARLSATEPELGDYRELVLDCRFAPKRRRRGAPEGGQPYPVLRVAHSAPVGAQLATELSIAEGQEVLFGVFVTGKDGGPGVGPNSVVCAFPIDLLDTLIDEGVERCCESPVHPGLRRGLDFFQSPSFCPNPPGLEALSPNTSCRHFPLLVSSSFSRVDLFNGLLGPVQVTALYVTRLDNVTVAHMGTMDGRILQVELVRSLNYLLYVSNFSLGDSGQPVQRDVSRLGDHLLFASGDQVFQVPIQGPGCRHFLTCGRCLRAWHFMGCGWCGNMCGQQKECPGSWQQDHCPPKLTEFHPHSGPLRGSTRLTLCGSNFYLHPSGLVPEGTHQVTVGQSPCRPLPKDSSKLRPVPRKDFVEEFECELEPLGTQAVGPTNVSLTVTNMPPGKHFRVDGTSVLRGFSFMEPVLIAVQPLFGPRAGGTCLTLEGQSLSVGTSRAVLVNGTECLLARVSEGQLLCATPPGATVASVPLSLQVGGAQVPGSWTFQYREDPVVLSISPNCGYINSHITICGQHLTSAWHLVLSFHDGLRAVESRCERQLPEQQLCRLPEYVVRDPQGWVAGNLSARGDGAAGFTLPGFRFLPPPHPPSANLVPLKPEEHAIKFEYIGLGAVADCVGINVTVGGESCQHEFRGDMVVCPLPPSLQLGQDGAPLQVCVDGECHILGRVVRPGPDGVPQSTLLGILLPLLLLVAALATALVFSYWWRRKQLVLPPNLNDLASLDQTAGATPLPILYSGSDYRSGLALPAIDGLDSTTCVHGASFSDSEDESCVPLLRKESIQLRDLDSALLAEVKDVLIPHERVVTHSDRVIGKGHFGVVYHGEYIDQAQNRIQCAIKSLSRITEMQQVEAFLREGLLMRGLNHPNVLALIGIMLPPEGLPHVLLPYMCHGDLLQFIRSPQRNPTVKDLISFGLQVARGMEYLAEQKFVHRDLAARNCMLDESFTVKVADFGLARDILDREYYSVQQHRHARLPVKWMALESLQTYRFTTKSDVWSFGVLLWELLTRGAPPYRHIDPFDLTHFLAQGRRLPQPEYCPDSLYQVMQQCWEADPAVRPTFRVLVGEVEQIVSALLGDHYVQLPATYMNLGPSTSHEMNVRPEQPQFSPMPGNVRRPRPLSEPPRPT

## CC(C)n1cc(-c2ccc(F)cc2)c(=O)c(C(=O)Nc2ccc(Oc3cc4cnn(C)c4cc3-c3cn[nH]c3)cn2)n1 [Compound 1, 5-(4-fluorophenyl)-1-isopropyl-N-(5-((1-methyl-6-(1H-pyrazol-4-yl)-1H-indazol-5-yl)oxy)pyridin-2-yl)-4-oxo-1,4-dihydropyridazine-3-carboxamide]
[1]
  IC50: 1.1 nM

## CC(C)n1cc(-c2ccc(F)cc2)c(=O)c(C(=O)Nc2cnc(Oc3ccnc(N)c3Cl)nc2)n1 [Compound 16, N-(2-((2-amino-3-chloropyridin-4-yl)oxy)pyrimidin-5-yl)-5-(4-fluorophenyl)-1-isopropyl-4-oxo-1,4-dihydropyridazine-3-carboxamide]
[2]
  IC50: 16 nM
[3]
  IC50: 579 nM

## Nc1nccc(Oc2ncc(NC(=O)c3nn(C4CC4)cc(-c4ccc(F)cc4)c3=O)cn2)c1Cl [Compound 20, N-(2-((2-amino-3-chloropyridin-4-yl)oxy)pyrimidin-5-yl)-1-cyclopropyl-5-(4-fluorophenyl)-4-oxo-1,4-dihydropyridazine-3-carboxamide]
[2]
  IC50: 17 nM
[1]
  IC50: 10 to 30 nM
[3]
  IC50: 2250 nM

## CC(C)n1cc(C(=O)Nc2ccc(Oc3ccnc(N)c3Cl)nc2)c(=O)c(-c2ccc(F)cc2)n1 [Compound 23, N-(6-((2-amino-3-chloropyridin-4-yl)oxy)pyridin-3-yl)-6-(4-fluorophenyl)-2-isopropyl-5-oxo-2,5-dihydropyridazine-4-carboxamide]
[4]
  IC50: 92 nM
[2]
  IC50: 30 nM
[3]
  IC50: > 10000 nM

## C=CCn1cc(-c2ccc(F)cc2)c(=O)c(C(=O)Nc2cnc(Oc3ccnc(N)c3Cl)nc2)n1 [Compound 40, 1-allyl-N-(2-((2-amino-3-chloropyridin-4-yl)oxy)pyrimidin-5-yl)-5-(4-fluorophenyl)-4-oxo-1,4-dihydropyridazine-3-carboxamide]
[2]
  IC50: 13 nM
[3]
  IC50: 1070 nM
